Data: patent US5776892A, “Anti-inflammatory peptides” (Curative Health Services, Inc., priority 1994, dated 1998)
No end group written: not given here.

Assays:
Acute toxicity in rats = format: in vivo, rat; conditions: rats, 100, 500 or 1,000 mg/kg
Procedure: Rats were dosed with CT-112 (SEQ. ID NO: 1) at 100, 500 or 1,000 mg/kg. […] All rats returned to normal appearance the day after treatment.

[1] = system: carrageenan-induced peritonitis; experiment: Carrageenan-induced peritonitis, LTB4 and PGE2 in peritoneal lavage fluid; format: in vivo, mouse; conditions: 60 mg/kg/day; 24 hr post-challenge
Procedure: (§1) Mice (C57BL/6UAF, females, 12 weeks old) were implanted with Alzet mini pumps set to deliver 60 mg CT-112/kg/day. Six days post-implantation, the mice were challenged with an intraperitoneal injection of 0.3 ml of carrageenan in PBS (10 mg/ml). The peritoneal cavity was lavaged with 15 ml of Hank's Balanced Salt Solution (Ca^2+ - and Mg^2+ -free) at 24, 48 and 72 hr post-challenge. The lavage fluid was centrifuged (500 g, 5 min), fixed with LeukoStat fixative and stained with LeukoStat staining solution. The slides were analyzed under a microscope for the different types of inflammatory cells, such as macrophages, lymphocytes and neutrophils. At the 48-hr time point, 5 control mice were also lavaged. In a separate study, the peritoneal lavage fluid was analyzed for total leukotriene B4 (LTB4) and prostaglandin E2 (PGE2) content at 24 hr post-challenge (Griswold et al., 1991, Biochem. Pharmacol. 42(4):825-831).

Salmonella = Salmonella reverse mutation assay; format: cell-based; conditions: 100-5,000 μg/ml, with or without rat liver microsomal enzyme activation
Text: The mutagenic potential of CT-112 (SEQ. ID NO: 1) has been assessed.

[2] = system: DNCB-induced delayed-type hypersensitivity; experiment: Delayed-type hypersensitivity to DNCB, ear thickness; format: in vivo, mouse
Procedure: CT-112 (SEQ. ID NO: 1) was tested for its ability to modulate the immune response in a mouse model of delayed hypersensitivity (Filipp et al., 1984, Allergy, 39: 499-507; Diezel et al., 1989 J. Invest. Dermatol. 93:322-326). The mice used in this study were 8-wk old hairless females (Jackson Laboratories). The mice were sensitized to a contact allergen (1-chloro-2,4-dinitrobenzene, DNCB) by painting the dorsothoracic region twice daily for 5 consecutive days with 50 μl of 0.5% DNCB in 75% acetone:25% vegetable oil. The animals were allowed to rest for 24 hr prior to challenge with DNCB. On the sixth day after initiation of the sensitization treatments, the animals were challenged with 50 μl of DNCB solution applied to the left ear. After 24 hrs, the ear thickness was determined and compared to the unchallenged ear.
The treatment groups were as follows:
b) Prednisone (intraperitoneal injection of 25 mg/kg, 2 hr prior to challenge);
d) CT-112 (intraperitoneal injections of 60 mg/kg/injection at 3, 1, and 0.25 hr prior to challenge and 3, 6 and 21 hr post-challenge);
e) DMSO control (topical application of 50 μl at 3, 1 and 0.25 hr prior to challenge; and
f) CT-112 in DMSO (20 mg/ml, topical application of 50 μl at 3, 1, and 0.25 hr prior to challenge and 3, 6 and 21 hr post-challenge).

[3] = system: carrageenan-induced peritonitis; experiment: Carrageenan-induced peritonitis, inflammatory cell influx in peritoneal lavage; format: in vivo, mouse; conditions: 60 mg/kg/day minipump
Procedure: as §1, with “lavaged.” for “lavaged. In a separate study, the peritoneal lavage fluid was analyzed for total leukotriene B4 (LTB4) and prostaglandin E2 (PGE2) content at 24 hr post-challenge (Griswold et al., 1991, Biochem. Pharmacol. 42(4):825-831).”

neutrophils = experiment: Neutrophil chemotaxis to leukotriene B4; format: cell-based; conditions: 15 min pre-exposure; read at 1 hr; FIG. 4
Procedure: The ability of CT-112 (SEQ. ID NO: 1) to inhibit chemotaxis of neutrophils in response to a variety of agents was assessed using Neuroprobe chemotaxis chambers. For these assays, neutrophils were resuspended in Hank's balanced salt solution with Ca^2+ and Mg^2+ to give a 5×10^6 cells/ml suspension after the cells were labeled with 1',7'-bis(2-carboxyethyl)-5-(6)-carboxyfluorescein. The neutrophils were exposed to CT-112 (SEQ. ID NO: 1) for approximately 15 min prior to addition to the chemotaxis chambers. CT-112 (SEQ. ID NO: 1) was present in both the top and bottom of the chambers, and the chemoattractant, either f-Met-Leu-Phe, leukotriene B4 or interleukin-8, was added to the bottom of chamber. Cells which had migrated through the membrane were determined by fluorescence at 530 nm at 1 hr after initiation of the assay.

[4] = ip 60 mg/kg/injection at 3, 1, 0.25 hr prior and 3, 6, 21 hr post-challenge
[5] = topical 50 μl of 20 mg/ml in DMSO at 3, 1, 0.25 hr prior and 3, 6, 21 hr post-challenge

In the case of “TTSQVRPR [CT-112, octapeptide derived from platelet factor 4]”, the lesions at necropsy (Acute toxicity in rats) was “No lesions were visible at necropsy”, the “mean body weight and mean body weight gain vs control” value (Acute toxicity in rats) was “no statistical differences” and the clinical effects (Acute toxicity in rats; several rats at 500 and 1,000 mg/kg, day of treatment) was “Transient clinical effects (hypoactivity, hypersensitiviy, staggered gait, cyanosis and absence of righting reflex)”. The “LTB4 (pg in peritoneal lavage)” value [1] was 16.8 ± 11.5 pg, the “PGE2 (pg in peritoneal lavage)” value [1] was 13.1 ± 6.9 pg and the “number of revertants (histidine independent growth)” value (Salmonella) was “did not cause an increase in the number of revertants”. For the same sequence, the “% Inhibition of Inflammation” value ([2]; 7-day pump, 60 mg/kg/24 hr) was 79.7%, the “Thickness Difference (Left-Right)” value ([2]; 7-day pump, 60 mg/kg/24 hr) was 0.00087 ± 0.000398 in and the “% Inhibition of Inflammation” value [2, 4] was 68.4%. The “Thickness Difference (Left-Right)” value [2, 4] was 0.00169 ± 0.000643 in, the “% Inhibition of Inflammation” value [2, 5] was 18.2% and the “Thickness Difference (Left-Right)” value [2, 5] was 0.0035 ± 0.000408 in. The “Absolute Cell Number, Lymphocytes” value ([3]; 24 hr post carrageenan) was 16.9 ± 5.9, the “Absolute Cell Number, Macrophages” value ([3]; 24 hr post carrageenan) was 19.5 ± 10 and the “Absolute Cell Number, Neutrophils” value ([3]; 24 hr post carrageenan) was 106 ± 29. The “Absolute Cell Number, Lymphocytes” value ([3]; 48 hr post carrageenan) was 12.5 ± 7.6, the “Absolute Cell Number, Macrophages” value ([3]; 48 hr post carrageenan) was 126 ± 43 and the “Absolute Cell Number, Neutrophils” value ([3]; 48 hr post carrageenan) was 134 ± 77. The “Absolute Cell Number, Lymphocytes” value ([3]; 72 hr post carrageenan) was 45.1 ± 42, the “Absolute Cell Number, Macrophages” value ([3]; 72 hr post carrageenan) was 255 ± 125 and the “Absolute Cell Number, Neutrophils” value ([3]; 72 hr post carrageenan) was 48.4 ± 28. The “chemotactic migration of neutrophils to LTB4” value (neutrophils) was “effectively inhibited”.
